Results published in US8710059B2, “N-phenyl-(homo)piperazinyl-benzenesulfonyl or benzenesulfonamide compounds suitable for treating disorders that respond to the modulation of the serotonin 5-HT6 receptor” (Abbott Laboratories, priority 2010, dated 2014).
pKd: −log10 of the molar value.

Biological target: T1, dopamine D2 receptor (Homo sapiens, UniProt P14416)
T1 construct: expressed in transfected cells
Test: Dopamine D2 receptor binding assay (displacement of [125I]-iodospiperone)
Settings: saturation binding experiments, HEK293 D2 membranes
Method: 1. […] The pellets were stored at −80° C. until use. […] (Beckman Ultrazentrifuge XL 80). […] 2. Receptor Binding Experiments
b) Dopamine D2 Receptor Binding Assay
Non-specific binding was defined with 1 μM haloperidol.

T1 sequence (P14416 whole entry): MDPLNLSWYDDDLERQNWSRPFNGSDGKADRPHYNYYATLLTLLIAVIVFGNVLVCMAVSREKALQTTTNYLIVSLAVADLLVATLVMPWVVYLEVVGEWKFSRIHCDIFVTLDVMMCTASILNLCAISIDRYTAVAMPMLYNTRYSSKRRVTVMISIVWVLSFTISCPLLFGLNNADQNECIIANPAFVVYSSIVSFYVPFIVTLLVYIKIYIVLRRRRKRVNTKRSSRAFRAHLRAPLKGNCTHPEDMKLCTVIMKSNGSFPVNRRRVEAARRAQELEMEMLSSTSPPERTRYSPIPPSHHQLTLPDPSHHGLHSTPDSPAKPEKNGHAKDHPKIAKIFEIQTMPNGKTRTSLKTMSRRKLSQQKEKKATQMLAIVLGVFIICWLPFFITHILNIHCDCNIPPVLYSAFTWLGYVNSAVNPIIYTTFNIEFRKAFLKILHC

pKd: 9.66
Substance: iodospiperone [[^125I]-iodospiperone]
